From article PMC10281575, “PfCRT mutations conferring piperaquine resistance in falciparum malaria shape the kinetics of quinoline drug binding and transport” (PLOS Pathogens, 2023)
“And” between values parts separate entries of the source, which are not always exact repeats. Equal values may be shown once. Read-outs that look alike come from different tables or passages of the source.

Target: T1, PfCRT^Dd2_F145I (Plasmodium falciparum, UniProt Q8IBZ9, A220S/F145I/I356T/K76T/M74I/N326S/N75E/Q271E/R371I)
T1 construct: expressed in transfected cells; host or cells: Xenopus laevis oocytes injected with in vitro transcribed RNA (pSP64T)
T1 sequence (Q8IBZ9 1-424 M74I/N75E/K76T/F145I/A220S/Q271E/N326S/I356T/R371I): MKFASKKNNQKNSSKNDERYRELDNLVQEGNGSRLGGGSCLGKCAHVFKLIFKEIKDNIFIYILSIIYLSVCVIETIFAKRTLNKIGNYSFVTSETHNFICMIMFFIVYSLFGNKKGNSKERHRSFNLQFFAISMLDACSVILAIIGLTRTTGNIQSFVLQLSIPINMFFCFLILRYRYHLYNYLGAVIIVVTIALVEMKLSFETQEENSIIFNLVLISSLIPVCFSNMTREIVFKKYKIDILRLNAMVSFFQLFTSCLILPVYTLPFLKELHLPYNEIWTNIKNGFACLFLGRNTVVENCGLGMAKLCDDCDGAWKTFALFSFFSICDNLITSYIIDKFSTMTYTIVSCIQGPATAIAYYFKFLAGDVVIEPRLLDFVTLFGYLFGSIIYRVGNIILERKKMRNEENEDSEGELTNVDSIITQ
Experiment: Competition kinetics of drug transport (radiolabeled substrate plus cold inhibitor), PfCRT^Dd2_F145I-expressing oocytes
Type: cell-based
Settings: for Vmax, maximal velocity of drug transport: global fit; for β, partiality factor: factor on transport of the labeled drug by the other drug
Protocol: To further characterize the kinetic relationship between CQ and PPQ, we performed a series of competition reactions. To this end, water-injected oocytes and PfCRT-expressing oocytes were incubated in medium containing one of seven concentrations of radio-labeled CQ and one of six concentrations of cold PPQ for 60 min before the amount of radio-labeled CQ uptake was determined. The rate of PfCRT-mediated CQ uptake was calculated for each condition by subtracting the corresponding value obtained for water-injected oocytes from those of PfCRT-expressing oocytes. The results were analyzed as a function of the CQ concentration (Fig 4A) and 16 different models of substrate competition were globally fit to the data by the least-squares method, using Python. The models were ranked, according to their Akaike information criterion difference (ΔAICC) and their Akaike weight (Fig 4B), with the most plausible model being the one with the lowest AICC (ΔAICC = 0) and the highest Akaike weight.
A complementary set of experiments was undertaken to investigate the kinetic mechanism by which PfCRT^Dd2_F145I accepts CQ and PPQ (Fig 6). […] These included a global fit of the substrate competition data to the 16 kinetic models (Fig 6), analysis of the secondary plots (Vmax,app and Vmax,app/KM,app as a function of the inhibitor concentration) (Fig 7A), a fractional velocity plot analysis (Fig 7B) and a comparison of the experimental data with the modelled data using the noncompetitive inhibition equation (Fig 7C to 7F). […] The fractional velocity plot illustrated the partial character of the noncompetitive inhibition mechanism by yielding a partiality factor β^CQ = 0.31 ± 0.04, by which PPQ reduces the transport velocity of CQ (Fig 7B). […] A 3D model of the kinetics between PfCRT^Dd2_F145I, CQ and PPQ, and analyses of the residuals as a function of substrate and inhibitor concentrations confirmed that the model was also an appropriate explanation for the mutant transporter (Fig 7C to 7F).
Drug transport assays were performed as previously described. Briefly, measurements of radiolabeled drug uptake were made over 1 h, unless otherwise specified. […] Where specified, one or more unlabeled drugs were also present at the indicated concentrations. The direction of drug transport in the assays is from the extracellular medium (pH 6) into the oocyte cytosol (pH 7.2), which corresponds to the efflux of CQ or PPQ from the acidic digestive vacuole (pH 5.2) into the parasite cytosol (pH 7.2). The uptake assays were terminated by removing the oocytes from the reaction medium and washing them three times with 2 mL of ice-cold ND96 buffer. Each oocyte was transferred to a separate scintillation vial and lysed by the addition of 200 μL of a 5% SDS solution. The radioactivity in the sample was measured using a liquid scintillation analyser Tri-Carb 4910 TR (PerkinElmer). Water-injected oocytes were analyzed in parallel as a negative control. The buffer from each condition was measured in duplicate in parallel to each experiment to transform counts per minute into pmol of drug. Drug uptake attributable to PfCRT was determined by subtracting the background uptake from water-injected oocytes from that of PfCRT-expressing oocytes. In all cases, at least three independent experiments were performed on oocytes from different frogs, and for each condition in an experiment, measurements were made from 10 oocytes per treatment.
The following equations were adopted from Segel (1993), and the reader is referred to that text for the assumptions made in the author’s approach in the derivation of each equation [31]. The concentration of substrate is denoted as [S1] and the concentration of the inhibiting substrate is denoted as [S2]. KS1 and KS2 are the dissociation constants for the respective substrate-protein complexes.
Analyses of the kinetic data were performed using SigmaPlot version 13.0 and Python. […]

Clc1ccc2c(N3CCN(CCCN4CCN(c5ccnc6cc(Cl)ccc56)CC4)CC3)ccnc2c1 [PPQ, piperaquine]
PfCRTDd2_F145I-mediated PPQ transport (500 µM PPQ, 400 µM CQ): 83.51 pmol oocyte-1 h-1 and 92.59 pmol oocyte-1 h-1 | v / (Vmax - v) (1/[PPQ] 0.002000 µM-1): 0.4488 | v / (Vmax - v) (1/[PPQ] 0.002857 µM-1): 0.4948 | v / (Vmax - v) (1/[PPQ] 0.005000 µM-1): 0.5591 | v / (Vmax - v) (1/[PPQ] 0.008000 µM-1): 0.7269 | v / (Vmax - v) (1/[PPQ] 0.020000 µM-1): 0.8760 | most plausible inhibition model (16 models, ΔAICC, Akaike weight, secondary plots): partial noncompetitive inhibition | Vmax, maximal velocity of drug transport (Mixed (Partial) model, drug as radiolabeled substrate): 150 ± 5 pmol oocyte^-1 h^-1 | Kd (Mixed (Partial) model, drug as cold inhibitor, read-out: KS, dissociation constant for the PfCRT-substrate complex): 160 ± 40 µM | Kd (Mixed (Partial) model, drug as radiolabeled substrate, read-out: KS, dissociation constant for the PfCRT-substrate complex): 128 ± 11 µM | β, partiality factor (Mixed (Partial) model): 0.64 ± 0.09 | α, KS interaction factor (Mixed (Partial) model, label = radiolabeled substrate, other drug cold inhibitor): 1.2 ± 0.3 | Vmax, maximal velocity of drug transport (Noncompetitive (Partial) model, drug as radiolabeled substrate, other drug as cold inhibitor): 152 pmol oocyte^-1 h^-1 and 152 ± 4 pmol oocyte^-1 h^-1 | Kd (Noncompetitive (Partial) model, drug as cold inhibitor, read-out: KS, dissociation constant for the PfCRT-substrate complex): 167 µM and 170 µM | Kd (Noncompetitive (Partial) model, drug as radiolabeled substrate, read-out: KS, dissociation constant for the PfCRT-substrate complex): 134 ± 8 µM | β, partiality factor (Noncompetitive (Partial) model): 0.61 and 0.61 ± 0.07 | KMapp ([3H]PPQ + CQ) ([CQ] 0 µM): 124.39 µM | Vmaxapp ([3H]PPQ + CQ) ([CQ] 0 µM): 148.37 pmol oocyte-1 h-1 | Vmaxapp/KMapp ([3H]PPQ + CQ) ([CQ] 0 µM): 1.1929 h⁻¹ | KMapp ([3H]PPQ + CQ) ([CQ] 25 µM): 139.84 µM | Vmaxapp ([3H]PPQ + CQ) ([CQ] 25 µM): 149.64 pmol oocyte-1 h-1 | Vmaxapp/KMapp ([3H]PPQ + CQ) ([CQ] 25 µM): 1.0701 h⁻¹ | KMapp ([3H]PPQ + CQ) ([CQ] 50 µM): 130.94 µM | Vmaxapp ([3H]PPQ + CQ) ([CQ] 50 µM): 139.65 pmol oocyte-1 h-1 | Vmaxapp/KMapp ([3H]PPQ + CQ) ([CQ] 50 µM): 1.0665 h⁻¹ | KMapp ([3H]PPQ + CQ) ([CQ] 125 µM): 131.31 µM | Vmaxapp ([3H]PPQ + CQ) ([CQ] 125 µM): 130.07 pmol oocyte-1 h-1 | Vmaxapp/KMapp ([3H]PPQ + CQ) ([CQ] 125 µM): 0.9905 h⁻¹ | KMapp ([3H]PPQ + CQ) ([CQ] 200 µM): 138.10 µM | Vmaxapp ([3H]PPQ + CQ) ([CQ] 200 µM): 125.38 pmol oocyte-1 h-1 | Vmaxapp/KMapp ([3H]PPQ + CQ) ([CQ] 200 µM): 0.9079 h⁻¹ | KMapp ([3H]PPQ + CQ) ([CQ] 400 µM): 147.48 µM | Vmaxapp ([3H]PPQ + CQ) ([CQ] 400 µM): 117.65 pmol oocyte-1 h-1 | Vmaxapp/KMapp ([3H]PPQ + CQ) ([CQ] 400 µM): 0.7978 h⁻¹ | Kd (secondary plot, half-maximal inhibitory concentration of Vmax,app versus inhibitor concentration, read-out: αKS, dissociation constant between the drug and the PfCRT complex with the other drug): 170 ± 30 µM | Kd (secondary plot, half-maximal inhibitory concentration of Vmax,app/KM,app versus inhibitor concentration, read-out: KS, dissociation constant between the drug and PfCRT): 170 ± 50 µM | α (αKS divided by KS) (secondary plots, label = prebound drug): 0.8 ± 0.7
